Assay: Photoactivated welding of rabbit Achilles tendon pieces, tensile strength by tensiometer
Conditions: mixture of 1.2 M DPD and 1.2 M DEDA in DMSO between two tendon pieces, 2 W, 500 sec (1,000 J)
Method: A rabbit Achilles tendon, previously stored at −70° C., was dissected from the remaining muscle, cleaned of fascia and muscle, and divided in half along its length.
One tendon piece was placed diagonally on a fused silica (UV transparent) glass slide and several drops of the mixture was placed in the center of the tendon piece. The other tendon piece was placed on top, forming an “X” shape with the mixture in between the two pieces at their intersection. Another identical slide was placed on top and light pressure was applied to the two slides.
The tendons and slides were then placed beneath a liquid light guide that delivered light from a filtered mercury-arc light source (320-500 nm, 2 W) and exposed for 500 sec (1,000 J).
After light exposure, the tendons were removed from the slide and placed on an illuminated grid beneath a CCD camera with a macro lens. An image of the overlapped (i.e. “welded”) area was digitized and stored. Measurement of the overlapped area was made using standard computer software.
The welded tendon was then placed in a tensiometer to measure tensile strength. One tendon end was clamped and attached to a strain gauge, while the opposite end of the other tendon clamped to a block moved by a lead screw.
The maximum force tolerated by the bonded tendon before breaking was divided by the bonded area to calculate the Maximum Stress in Newtons/cm^2.

[N-]=[N+]=CC(=O)C(=O)NCCOCCOCCNC(=O)C(=O)C=[N+]=[N-] [DPD, N,N′-bis(3-diazapynivoyl)-2,2′-(ethylenedioxy)bis(ethylamine)]
Observation of tendon welding after light exposure (320-500 nm): welded together
Maximum Stress (maximum force tolerated by the bonded tendon before breaking divided by the bonded area) (filtered mercury-arc light 320-500 nm): 31.7 N/cm^2
